Results: patent US6680058B1, “Compositions and methods for contraception in or sterilization of mammals” (Board of Supervisors of Louisiana State University and …, priority 1997, dated 2004)

Tests used:
granulosa cells = experiment: Steroid hormone production by granulosa cells (data not shown); type: cell-based, bovine
From the text: Stimulation of target cell hormone production was not required for cell lysis.

[1] = tested on: sexually mature, Sprague-Dawley female rats; experiment: Sexually mature Sprague-Dawley female rats, single intravenous treatment, necropsy 48 or 96 hours after treatment, H&E and PAS stain (Examples 15-22); type: in vivo, rat; settings: 334 μg in 200 μL saline (1.35 mM) i.v.; sacrificed 48 or 96 hours after injection
Description: Eight sexually mature, Sprague-Dawley female rats were randomly assigned to one of eight treatments. Each group of rats received a single treatment intravenously, as described below. Rats were sacrificed and necropsied either 48 or 96 hours after treatment. The ovaries, uterus, pancreas, liver, spleen, lungs, heart, thyroid, and adrenal glands were fixed in 10% buffered formalin; sectioned; and stained with H&E (hematoxylin and eosin) stain; except that the pituitary glands were stained with PAS (periodic acid-Schiff) stain with no counter-stain. The treatments were selected so that each animal received an equimolar amount of the compound with which it was treated.

GnRH receptor [2] = target: T1, GnRH receptor (Homo sapiens, UniProt P30968); settings: reported; see U.S. Pat. No. 5,488,036; cited from earlier work
T1 sequence (P30968 1-328): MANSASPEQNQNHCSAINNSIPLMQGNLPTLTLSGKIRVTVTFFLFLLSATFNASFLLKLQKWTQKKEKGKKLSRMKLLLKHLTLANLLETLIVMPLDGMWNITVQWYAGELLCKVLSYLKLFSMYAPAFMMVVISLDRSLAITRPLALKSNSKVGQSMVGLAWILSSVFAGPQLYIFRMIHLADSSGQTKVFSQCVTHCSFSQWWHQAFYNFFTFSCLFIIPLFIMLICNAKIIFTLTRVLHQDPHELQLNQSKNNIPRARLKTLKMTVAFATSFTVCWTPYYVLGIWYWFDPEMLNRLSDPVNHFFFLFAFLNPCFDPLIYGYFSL

GnRH receptor [3] = target: T2, GnRH receptor (Rattus norvegicus, UniProt P30969); experiment: Displacement of radiolabelled monoiodinated-GnRH from rat pituitary membranes (Example 24); type: binding
T2 construct: specifically displaced radiolabelled monoiodinated-GnRH from rat pituitary membranes; from tissue; host or cells: rat pituitary membranes
T2 sequence (P30969 1-327): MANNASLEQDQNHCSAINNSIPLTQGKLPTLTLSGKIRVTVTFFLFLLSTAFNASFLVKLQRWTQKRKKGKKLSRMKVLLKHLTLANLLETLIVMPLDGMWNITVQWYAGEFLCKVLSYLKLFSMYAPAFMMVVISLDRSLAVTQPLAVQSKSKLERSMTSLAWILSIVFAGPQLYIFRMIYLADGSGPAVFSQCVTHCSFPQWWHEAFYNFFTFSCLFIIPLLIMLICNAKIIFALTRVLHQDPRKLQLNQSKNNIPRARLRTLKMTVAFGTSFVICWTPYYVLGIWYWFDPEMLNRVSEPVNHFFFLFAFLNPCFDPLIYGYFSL
From the text: We also synthesized D-Lys^6GnRH (SEQ. ID NO. 13), so that hecate could be conjugated to the D-Lys^6, a position that could minimize interference with binding of the GnRH domain to the GnRH receptor. These synthetic peptides specifically displaced radiolabelled monoiodinated-GnRH from rat pituitary membranes.

[4] = tested on: sexually mature, mixed breed, female rats; experiment: Sexually mature female rats, double intravenous treatment, necropsy two weeks after treatment (Examples 9-14); type: in vivo, rat; settings: Treatment 12: hecate 337 μg i.v., repeated after 24 hours; two weeks
From the text: Eighteen sexually mature, mixed breed, female rats were randomly assigned to one of six groups containing three rats each. Each group of rats received a double treatment intravenously, as described below. Two weeks after the treatment, the rats were sacrificed and necropsied. The reproductive and endocrine organs were sectioned, weighed, and examined histologically.

[5] = tested on: pituitary basophilic (gonadotropic) cells; experiment: Adult female rat pituitary gland sections in tissue culture, histology ten hours after treatment (Examples 1-6); type: cell-based; settings: 50 μM hecate in the medium; ten hours
Description: The pituitary gland of an adult female rat was harvested and divided into six sections of approximately equal size. One section was placed in each of six wells containing tissue culture medium at 37° C. A different treatment was applied to each well, as described below. Ten hours after treatment, the tissue from each well was fixed, and the histology of each was examined microscopically.

bovine granulosa cells = experiment: In vitro lysis of bovine granulosa cells (Examples 33-34); type: cell-based; settings: hecate alone; compared with small luteal cells
From the text: We also studied in vitro lysis of bovine granulosa cells with GnRH-hecate conjugate and with hecate-bLH conjugate. Granulosa cells were isolated from bovine pre-ovulatory follicles. (Granulosa cells are hormonally active cells with numerous LH receptors.) Our experiments with granulosa cells were otherwise generally similar to those described above for Examples 25-32.

[6] = tested on: bovine small luteal cells; experiment: In vitro lysis of bovine small luteal cells, Trypan Blue exclusion and release of lactic dehydrogenase (Examples 25-32); type: cell-based; settings: 22 hr. incubation; for killing of small luteal cells: Trypan Blue exclusion
Description: We studied in vitro lysis of bovine luteal cells with GnRH-hecate conjugate and with hecate-bLH conjugate (SEQ. ID NO. 12). (The bLH component of the conjugate is a 15-mer fragment of the beta chain of luteinizing hormone, SEQ. ID NO. 11). Small luteal cells were collected from cattle corpora lutea post-slaughter.
Small luteal cells in culture were incubated with one of the following treatments for 22 hours, and were then examined for viability using Trypan Blue exclusion and release of lactic dehydrogenase.

[7] = tested on: cells of the flat oyster Ostrea edulis; settings: at the doses that reduced parasite viability; Morvan et al. 1994; cited from earlier work
Bonamia ostreae = settings: in vitro; Morvan et al. 1994; cited from earlier work

15-mer fragment of the bLH subunit: 15-mer fragment of the beta chain of luteinizing hormone, SEQ. ID NO. 11 (SYAVALSCQCALCRR)
production of steroid hormones (stimulus-coupled response) (granulosa cells): did not initiate the production of steroid hormones

CC(C)C[C@H](NC(=O)CNC(=O)[C@H](Cc1ccc(O)cc1)NC(=O)[C@H](CO)NC(=O)[C@H](Cc1c[nH]c2ccccc12)NC(=O)[C@H](Cc1cnc[nH]1)NC(=O)[C@@H]1CCC(=O)N1)C(=O)N[C@@H](CCCNC(=N)N)C(=O)N1CCC[C@H]1C(=O)NCC(N)=O [GnRH, gonadotropin-releasing hormone, reference compound]
gross lesions in the organs [1]: No gross lesions

CCNC(=O)[C@@H]1CCCN1C(=O)[C@H](CCCNC(=N)N)NC(=O)[C@H](CC(C)C)NC(=O)[C@@H](COC(C)(C)C)NC(=O)[C@H](Cc1ccc(O)cc1)NC(=O)[C@H](CO)NC(=O)[C@H](Cc1c[nH]c2ccccc12)NC(=O)[C@H](Cc1cnc[nH]1)NC(=O)[C@@H]1CCC(=O)N1 [buserelin]
binding affinity to the GnRH receptor compared with GnRH (GnRH receptor [2]): greater binding affinity to the GnRH receptor than does GnRH itself

CC(C)C[C@H](NC(=O)[C@@H](COC(C)(C)C)NC(=O)[C@H](Cc1ccc(O)cc1)NC(=O)[C@H](CO)NC(=O)[C@H](Cc1c[nH]c2ccccc12)NC(=O)[C@H](Cc1cnc[nH]1)NC(=O)[C@@H]1CCC(=O)N1)C(=O)N[C@@H](CCCNC(=N)N)C(=O)N1CCC[C@H]1C(=O)NNC(N)=O [goserelin]
binding affinity to the GnRH receptor compared with GnRH (GnRH receptor [2]): greater binding affinity to the GnRH receptor than does GnRH itself

CCNC(=O)[C@@H]1CCCN1C(=O)[C@H](CCCNC(=N)N)NC(=O)[C@H](CC(C)C)NC(=O)[C@@H](CC(C)C)NC(=O)[C@H](Cc1ccc(O)cc1)NC(=O)[C@H](CO)NC(=O)[C@H](Cc1c[nH]c2ccccc12)NC(=O)[C@H](Cc1c[nH]cn1)NC(=O)[C@@H]1CCC(=O)N1 [leuprolide]
binding affinity to the GnRH receptor compared with GnRH (GnRH receptor [2]): greater binding affinity to the GnRH receptor than does GnRH itself

D-Lys^6GnRH-hecate: hecate conjugated to the D-Lys^6 of D-Lys^6GnRH
displacement of radiolabelled monoiodinated-GnRH, compared with native mammalian GnRH (GnRH receptor [3]; as measured by cpm of radioactivity): comparable to (and actually slightly greater than) displacement by native mammalian GnRH

D-Lys^6GnRH: GnRH analog with D-Lys at position 6, SEQ. ID NO. 13
specific displacement of the radiolabelled peptide relative to equimolar concentrations of GnRH (GnRH receptor [3]; molar basis over a 1000-fold concentration range (n=6), native GnRH = 100%): 187%±8%

hecate: amphipathic lytic peptide, synthetic peptide analog of melittin, SEQ. ID NO. 2 (FALALKALKKALKKLKKALKKAL) [reference compound]
ovarian function [4]: normal ovarian function
histology of pituitary tissue after treatment [5]: appeared normal
susceptibility of granulosa cells to killing (bovine granulosa cells): much more susceptible to killing by hecate alone than were the small luteal cells
cell death of small luteal cells ([6]; 1 μM): did not differ significantly from negative control (media) or from bLH alone
killing of small luteal cells ([6]; 5 μM): approximately 50%
killing of small luteal cells ([6]; 10 μM): Significant killing

magainin 1: antimicrobial peptide magainin 1 (GIGKFLHSAGKFGKAFVGEIMKS; Magainin-1; UniProt P11006 37-59, looked up)
effect on cells of the flat oyster Ostrea edulis [7]: did not affect
viability of the parasite Bonamia ostreae (Bonamia ostreae): selectively reduce the viability
